Drawing on patent US20050020680A1, “Hydroxyfattysulfonic acid analogs” (priority 2001, published 2005), this text covers IC50, cortex infarct volume and total infarct volume for 2 compounds.

Assay [1] relates to Rat neutrophils. Description: Elastase production by fMLP stimulation (elastase release inhibition). The assay is classed as cell-based. The conditions noted are these: elastase release from cytochalasin B-primed rat neutrophils, fMLP 1 μM, 10 minutes preincubation. As for the experimental part: Test for Elastase Production by fMLP (N-formyl-Met-Leu-Phe)Stimulation
Rat neutrophils preparation was obtained 15-18 hours after intraperitoneal injection of a 1% sterile casein solution in saline (120 mL/kg). Cells were harvested by peritoneal lavage after the decapitation. The lavage fluid was ice-cold PBS (Phosphate-Buffered Saline). Peritoneal exudates were pooled, centrifuged and suspended in HBSS (Hanks' Balanced Salt Solution) at 1×10^7 cells/mL. Cytochalasin B (final concentration: 5 μg/mL) were added to prime the cells. The cells were added into a 96-well culture plate (190 μL/well) and then the compounds of the present invention at various concentrations (10^−7 to 3×10^−5 M) were added and incubated at 37° C. in an atmosphere of 5% CO2 in air. […]
Elastase activity in the incubated supernatant was measured using a specific elastase substrate, N-succinyl-L-alanyl-L-alanyl-L-proline-valine-MCA (Peptide Institue, Inc., Osaka), 0.12 mM in 50 mM Tris-HCl (pH 8.0). […]
Elastase release-inhibiting activity (inhibition ratio) was calculated according to the following equation: Inhibition ratio (%) […]×100 wherein A stands for a fluorescence intensity when fMLP (1 μM) was added; B stands for a fluorescence intensity when fMLP (1 μM) and the present compound were added; and C stands for a fluorescence intensity when fMLP (1 μM) was not added. […]

For assay [2], the system named is rat t-MCAo model. Description: Infarct volume in rat transient MCA occlusion (t-MCAo) model. In kind it is in vivo, Wistar rats. The conditions noted are these: 0.1 mg/kg/min, intravenous 1 hour infusion immediately after reperfusion; 71 hrs after reperfusion; vs vehicle-treated group, p<0.05 Dunnett's test. As for the experimental part: FIG. 1 represents an effect of compound 33 on infarct volume in rat t-MCAo model.
The infract volumes of total (open column), cortex (closed column) and subcortex (hatched column) were determined 71 hrs after reperfusion. Data are presented as mean±SEM. *p<0.05 vs vehicle-treated group (Dunnett's test).
Effect on the Infarct Volume in Rat Transient MCA Occlusion (t-MCAo) Model.
Adult male Wistar rats (200-250 g) were anesthetized with 2% halothane in air. The right internal carotid artery (ICA) was carefully dissected. A silicon-coated suture (18 mm-long) was inserted into the ICA. Body temperature was maintained at 37° C. with a heating pad. […] After 1 hour of MCA occlusion, the thread was removed to allow reperfusion of the ischemic area. Rats were received intravenously 1 hour-infusion of vehicle (10% of HP-β-CD) or compound 33 dissolved in vehicle immediately after reperfusion.
To measure infarct volume, rats were killed at 71 hours of reperfusion. Brains were perfused transcardially with physiological saline, and removed from skulls, cut into 2-mm coronal sections. The slices were immersed in 2% triphenyltetrazolium chloride (TTC) solution at 37° C. for 30 minutes. All values were presented as mean±SEM. For statistical analyses, Dunnett's multiple-range test was used.

On to `CCCC[C@@H](O)/C=C\CCCCCCC/C=C\CCCS(=O)(=O)O` [Compound 23, Sodium (R)-(4Z, 13Z)-15-hydroxynonadeca-1,13-diene-1-sulfonate], for which it took 9.67 µM to reach half-maximal inhibition in assay [1] (IC50).

Consider `CCCC[C@@H](O)/C=C\CCCCCCCCCCCCS(=O)(=O)[O-].[Na+]` [Compound 33, Sodium (R)-(Z)-15-hydroxynonadec-13-ene-1-sulfonate], for which, in assay [1] (Neutrophil), 15 µM corresponded to half-maximal inhibition (IC50). In assay [2], the cortex infarct volume entry is “significantly reduced” and the total infarct volume result is reported as “significantly reduced”.
